Molecules are shown by their SMILES.

T1 sequence (Q9GZT9 whole entry): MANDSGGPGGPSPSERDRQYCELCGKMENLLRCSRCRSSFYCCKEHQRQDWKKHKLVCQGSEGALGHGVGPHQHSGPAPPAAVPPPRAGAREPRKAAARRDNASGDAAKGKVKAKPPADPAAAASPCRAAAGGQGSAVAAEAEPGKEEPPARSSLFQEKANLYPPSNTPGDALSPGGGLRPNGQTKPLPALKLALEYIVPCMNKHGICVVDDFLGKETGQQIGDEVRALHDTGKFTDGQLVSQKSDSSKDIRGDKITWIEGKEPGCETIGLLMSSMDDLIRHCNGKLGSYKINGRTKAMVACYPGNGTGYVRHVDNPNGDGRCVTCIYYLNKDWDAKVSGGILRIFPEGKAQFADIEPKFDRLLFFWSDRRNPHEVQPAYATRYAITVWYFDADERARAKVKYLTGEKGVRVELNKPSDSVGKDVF

The first assay addresses T1, Human HIF-PHD2 (Homo sapiens, UniProt Q9GZT9).
T1 construct: FLAG-tagged full length PHD2 expressed in and purified from baculovirus-infected Sf9 cells; FLAG; made in house; host or cells: baculovirus-infected Sf9 cells
Put plainly: Inhibition of the hydroxylation of a HIF peptide by PHD2 (time resolved fluorescence, 384-well). Format: biochemical. The following applies: FLAG-tagged full length PHD2; 0.2 μM 2-oxoglutarate, 0.5 μM HIF-1α peptide; 45 minutes at room temperature; read-out: Human HIF-PHD2 IC50. On the procedure: To each well of a 384-well plate, 1 μL of test compounds in DMSO (final concentration ranging from 0.3 nM to 10 uM) were added into 20 μl of assay buffer (50 mM Tris pH 7.4/0.01% Tween-20/0.1 mg/ml bovine serum albumin/10 μM ferrous sulfate/1 mM sodium ascorbate/20 μg/ml catalase) containing 0.15 μg/ml FLAG-tagged full length PHD2 expressed in and purified from baculovirus-infected Sf9 cells. After a 5 min preincubation at room temperature, the enzymatic reactions were initiated by the addition of 4 μL of substrates {final concentrations of 0.2 μM 2-oxoglutarate and 0.5 μM HIF-1α peptide biotinyl-[…] […] After incubation for 45 minutes at room temperature, the reactions were terminated by the addition of a 25 μL quench/detection mix to a final concentration of 1 mM ortho-phenanthroline, 0.1 mM EDTA, 0.5 nM anti-(His)6 LANCE reagent (Perkin-Elmer Life Sciences), 100 nM AF647-labeled streptavidin (Invitrogen), and 2 μg/ml (His)6-VHL complex {S. Tan Protein Expr. Purif.
Take `O=C(O)CNC(=O)c1c(O)c2cccc3c2n(c1=O)C(c1ccc(C(F)(F)F)cc1)CO3` (racemic) [Example 1, 2-(7-Hydroxy-5-oxo-3-(4-(trifluoromethyl)phenyl)-3,5-dihydro-2H-[1,4]oxazino[2,3,4-ij]quinoline-6-carboxamido)acetic acid]: the IC50 was found to be 15.8 nM.

For the compound `O=C(O)CNC(=O)c1c(O)c2cccc3c2n(c1=O)CC(c1cncs1)C3` (racemic) [Example 50, 2-(1-Hydroxy-3-oxo-6-(thiazol-5-yl)-3,5,6,7-tetrahydropyrido[3,2,1-ij]quinoline-2-carboxamido)acetic acid], the IC50 was 7.3 nM.

Turning to `O=C(O)CNC(=O)c1c(O)c2cccc3c2n(c1=O)C(c1ccccc1)C3` (racemic) [Example 129, 2-(6-Hydroxy-4-oxo-2-phenyl-2,4-dihydro-1H-pyrrolo[3,2,1-ij]quinoline-5-carboxamido)acetic acid], the IC50 is 74 nM.

For the compound `O=C(O)CNC(=O)c1c(O)c2cccc3c2n(c1=O)C(Cc1ccc(Cl)cc1)CC3` (racemic) [Example 131, 2-(5-(4-Chlorobenzyl)-1-hydroxy-3-oxo-3,5,6,7-tetrahydropyrido[3,2,1-ij]quinoline-2-carboxamido)acetic acid], the IC50 came to 15 nM.

As for `O=C(O)CNC(=O)c1c(O)c2cccc3c2n(c1=O)C(c1ccc(Br)cc1)CO3` (racemic) [Example 133, 2-(3-(4-Bromophenyl)-7-hydroxy-5-oxo-3,5-dihydro-2H-[1,4]oxazino[2,3,4-ij]quinoline-6-carboxamido)acetic acid], the IC50 was 17 nM.

As for `O=C(O)CNC(=O)c1c(O)c2cccc3c2n(c1=O)C(c1ccc(C(F)(F)F)cc1)CO3` (single isomer, unassigned) [Example 1a, 2-(7-Hydroxy-5-oxo-3-(4-(trifluoromethyl)phenyl)-3,5-dihydro-2H-[1,4]oxazino[2,3,4-ij]quinoline-6-carboxamido)acetic acid], the IC50 came to 33.7 nM.

With `O=C(O)CNC(=O)c1c(O)c2cccc3c2n(c1=O)C(c1ccc(C(F)(F)F)cc1)CO3` (single isomer, unassigned) [Example 1b, 2-(7-Hydroxy-5-oxo-3-(4-(trifluoromethyl)phenyl)-3,5-dihydro-2H-[1,4]oxazino[2,3,4-ij]quinoline-6-carboxamido)acetic acid], the IC50 was 13.1 nM.

Turning to `CS(=O)(=O)c1cc2c3c(c1)c(O)c(C(=O)NCC(=O)O)c(=O)n3CC(c1ccc(C(F)(F)F)cc1)O2` (single isomer, unassigned) [Example 17, 2-(7-Hydroxy-9-(methylsulfonyl)-5-oxo-2-(4-(trifluoromethyl)phenyl)-3,5-dihydro-2H-[1,4]oxazino[2,3,4-ij]quinoline-6-carboxamido)acetic acid], the IC50 amounted to 0.9 nM.

For the compound `CS(=O)(=O)c1cc2c3c(c1)c(O)c(C(=O)NCC(=O)O)c(=O)n3CC(c1ccc(C(F)(F)F)cc1)O2` (single isomer, unassigned) [Example 18, 2-(7-Hydroxy-9-(methylsulfonyl)-5-oxo-2-(4-(trifluoromethyl)phenyl)-3,5-dihydro-2H-[1,4]oxazino[2,3,4-ij]quinoline-6-carboxamido)acetic acid], the IC50 came to 1.3 nM.

With `N#Cc1ccc2c(O)c(C(=O)NCC(=O)O)c(=O)n3c2c1OC(c1ccc(C(F)(F)F)cc1)C3` (single isomer, unassigned) [Example 20, 2-(10-Cyano-7-hydroxy-5-oxo-2-(4-(trifluoromethyl)phenyl)-3,5-dihydro-2H-[1,4]oxazino[2,3,4-ij]quinoline-6-carboxamido)acetic acid], the IC50 was 0.5 nM.

Take `N#Cc1ccc2c(O)c(C(=O)NCC(=O)O)c(=O)n3c2c1OC(c1ccc(C(F)(F)F)cc1)C3` (single isomer, unassigned) [Example 21, 2-(10-Cyano-7-hydroxy-5-oxo-2-(4-(trifluoromethyl)phenyl)-3,5-dihydro-2H-[1,4]oxazino[2,3,4-ij]quinoline-6-carboxamido)acetic acid]: the IC50 is 0.6 nM.

Turning to `CS(=O)(=O)c1ccc2c(O)c(C(=O)NCC(=O)O)c(=O)n3c2c1OC(c1ccc(C(F)(F)F)cc1)C3` (single isomer, unassigned) [Example 23, 2-(7-Hydroxy-10-(methylsulfonyl)-5-oxo-2-(4-(trifluoromethyl)phenyl)-3,5-dihydro-2H-[1,4]oxazino[2,3,4-ij]quinoline-6-carboxamido)acetic acid], the IC50 turned out to be 1.6 nM.

Turning to `CS(=O)(=O)c1ccc2c(O)c(C(=O)NCC(=O)O)c(=O)n3c2c1OC(c1ccc(C(F)(F)F)cc1)C3` (single isomer, unassigned) [Example 24, 2-(7-Hydroxy-10-(methylsulfonyl)-5-oxo-2-(4-(trifluoromethyl)phenyl)-3,5-dihydro-2H-[1,4]oxazino[2,3,4-ij]quinoline-6-carboxamido)acetic acid], the IC50 is 1.3 nM.

Consider `O=C(O)CNC(=O)c1c(O)c2cccc3c2n(c1=O)CC(c1cncs1)C3` (single isomer, unassigned) [Example 50a, 2-(1-Hydroxy-3-oxo-6-(thiazol-5-yl)-3,5,6,7-tetrahydropyrido[3,2,1-ij]quinoline-2-carboxamido)acetic acid], for which the IC50 stood at 6.7 nM.

As for `O=C(O)CNC(=O)c1c(O)c2cccc3c2n(c1=O)CC(c1cncs1)C3` (single isomer, unassigned) [Example 50b, 2-(1-Hydroxy-3-oxo-6-(thiazol-5-yl)-3,5,6,7-tetrahydropyrido[3,2,1-ij]quinoline-2-carboxamido)acetic acid], the IC50 came out at 8.3 nM.

With `O=C(O)CNC(=O)c1c(O)c2c(F)ccc3c2n(c1=O)CC(c1ccc(C(F)(F)F)cc1)O3` (single isomer, unassigned) [Example 68, 2-(8-Fluoro-7-hydroxy-5-oxo-2-(4-(trifluoromethyl)phenyl)-3,5-dihydro-2H-[1,4]oxazino[2,3,4-ij]quinoline-6-carboxamido)acetic acid], the IC50 worked out at 4.9 nM.

As to `O=C(O)CNC(=O)c1c(O)c2c(Cl)ccc3c2n(c1=O)CC(c1ccc(C(F)(F)F)cc1)O3` (single isomer, unassigned) [Example 70, 2-(8-Chloro-7-hydroxy-5-oxo-2-(4-(trifluoromethyl)phenyl)-3,5-dihydro-2H-[1,4]oxazino[2,3,4-ij]quinoline-6-carboxamido)acetic acid], the IC50 was found to be 1.8 nM.

`O=C(O)CNC(=O)c1c(O)c2ccc(Cl)c3c2n(c1=O)CC(c1ccc(C(F)(F)F)cc1)O3` (single isomer, unassigned) [Example 72, 2-(10-Chloro-7-hydroxy-5-oxo-2-(4-(trifluoromethyl)phenyl)-3,5-dihydro-2H-[1,4]oxazino[2,3,4-ij]quinoline-6-carboxamido)acetic acid]: the IC50 was found to be 2.6 nM.

For the compound `O=C(O)CNC(=O)c1c(O)c2cc(Cl)cc3c2n(c1=O)CC(c1ccc(C(F)(F)F)cc1)O3` (single isomer, unassigned) [Example 74, 2-(9-Chloro-7-hydroxy-5-oxo-2-(4-(trifluoromethyl)phenyl)-3,5-dihydro-2H-[1,4]oxazino[2,3,4-ij]quinoline-6-carboxamido)acetic acid], the IC50 turned out to be 10 nM.

Consider `N#Cc1ccc(C2Cn3c(=O)c(C(=O)NCC(=O)O)c(O)c4ccc(C(F)(F)F)c(c43)O2)cc1` (single isomer, unassigned) [Example 77, 2-(2-(4-cyanophenyl)-7-hydroxy-5-oxo-10-(trifluoromethyl)-3,5-dihydro-2H-[1,4]oxazino[2,3,4-ij]quinoline-6-carboxamido)acetic acid], for which the IC50 amounted to 2 nM.

The same assay, now with this note: FLAG-tagged full length PHD2; 0.2 μM 2-oxoglutarate, 0.5 μM HIF-1α peptide; 45 minutes at room temperature; read-out: MS m/z (M + 1)+ and human HIF-PHD2 IC50.
Take `O=C(O)CNC(=O)c1c(O)c2c(F)ccc3c2n(c1=O)CC(c1ccc(C(F)(F)F)cc1)O3` (single isomer, unassigned) [Example 69, 2-(8-fluoro-7-hydroxy-5-oxo-2-(4-(trifluoromethyl)phenyl)-3,5-dihydro-2H-[1,4]oxazino[2,3,4-ij]quinoline-6-carboxamido)acetic acid]: the IC50 is 3.3 nM.

Consider `O=C(O)CNC(=O)c1c(O)c2c(Cl)ccc3c2n(c1=O)CC(c1ccc(C(F)(F)F)cc1)O3` (single isomer, unassigned) [Example 71, 2-(8-chloro-7-hydroxy-5-oxo-2-(4-(trifluoromethyl)phenyl)-3,5-dihydro-2H-[1,4]oxazino[2,3,4-ij]quinoline-6-carboxamido)acetic acid], for which the IC50 came to 5.1 nM.

Turning to `O=C(O)CNC(=O)c1c(O)c2ccc(Cl)c3c2n(c1=O)CC(c1ccc(C(F)(F)F)cc1)O3` (single isomer, unassigned) [Example 73, 2-(10-chloro-7-hydroxy-5-oxo-2-(4-(trifluoromethyl)phenyl)-3,5-dihydro-2H-[1,4]oxazino[2,3,4-ij]quinoline-6-carboxamido)acetic acid], the IC50 was 2.8 nM.

Turning to `O=C(O)CNC(=O)c1c(O)c2cc(Cl)cc3c2n(c1=O)CC(c1ccc(C(F)(F)F)cc1)O3` (single isomer, unassigned) [Example 75, 2-(9-chloro-7-hydroxy-5-oxo-2-(4-(trifluoromethyl)phenyl)-3,5-dihydro-2H-[1,4]oxazino[2,3,4-ij]quinoline-6-carboxamido)acetic acid], the IC50 amounted to 12 nM.

The values above are taken from patent US9969752B2, “Inhibitors of HIF prolyl hydroxylase” (MERCK SHARP & DOHME CORP., priority 2014, dated 2018).
